{"source": "patent US7425579B2", "about": "“Methods for inhibiting activity of polyamine transporters” (Universite Laval, priority 1998, dated 2008)", "key": {"[1]": {"system": "polyamine transport system", "assay": "Time course of [3H]spermidine accumulation in T-47D cells", "format": "cell-based, human", "experimental": "In particular, exponentially growing T-47D (A) or ZR-75-1 cells (B and C) were transferred to serum-free medium containing 5 μM [^3H]spermidine, and either 200 μM cycloheximide (CHX) (●), 100 μM BNSD-X (□), CHX plus BNSD-X (▪), or vehicle only (∘). Cells were incubated for the time intervals indicated prior to harvesting for detrmination of total intracellular radioactivity. ZR-75-1 cells were either pre-incubated for 48 h in the absence (panel B) or presence of 1 mM DFMO (panel C) prior to the experiment shown; DFMO was also included during the labeling period in the appropriate group. Data are presented as the mean±SD for triplicate cultures from one representative experiment;\nThe effect of BNSD-X on the time course of [^3H]spermidine accumulation was determined in ZR-75-1 and T-47D cells pre-incubated in the presence or absence of DFMO before addition of radioactive substrate and the transport inhibitor. Subgroups of cell cultures were also treated with cycloheximide in order to prevent the polyamine-dependent induction of ODC antizyme, which rapidly down-regulates polyamine transport activity through an unknown mechanism (Lessard et al. (1995) J. Biol. Chem. 270, 1685-1694; Coffino et al. (2001) Nat Rev Mol Cell Biol. 2:188-194). As expected, [^3H]spermidine accumulation reached a plateau after approximately 2 h in both […], but increased in an approximately linear fashion for the first 6-8 h in the presence of cycloheximide, consistent with relief from feedback repression of polyamine transport as a result of inhibition of antizyme synthesis. At a BNSD-X:spermidine ratio of 20:1, the triamine dimer decreased net [^3H]spermidine uptake in T-47D cells after 8 h by 92% and 80% in the presence or absence of cycloheximide, respectively (FIG. 7A), whereas it inhibited spermidine accumulation by 90 and 65%, respectively, under the same conditions in ZR-75-1 cells (FIG. 7B). […]"}, "[2]": {"system": "CHO-TOR cells", "assay": "Potentiation of DFMO-induced cytostasis in CHO-TOR cells", "format": "cell-based, Chinese hamster", "conditions": "2 mM DFMO; 4 d", "experimental": "FIGS. 9A and 9B are graphs showing that potentiation of DFMO-induced cytostasis by a compound used in a method according to a preferred embodiment of the invention requires a functional polyamine transport system. In particular, CHO-TOR cells (A) and their polyamine transport-deficient mutant subline CHO-MG (B) were grown in medium containing 1 mM aminoguanidine and the indicated concentration of spermidine, in the presence of 2 mM DFMO (●), BNSD-X (□), DFMO+BNSD-X (▪), or vehicle only (∘). Cells were harvested after 4 d for determination of total DNA/well. Data are presented as the mean±SD for triplicate cultures from one representative experiment;\nTo determine the ability of polyamine transport antagonists to potentiate DFMO-induced inhibition of cell proliferation in the presence of exogenous polyamines, cells were grown for the indicated period in growth medium supplemented with 1 mM aminoguanidine, and either DFMO (1 to 5 mM), the indicated transport inhibitor (50 or 100 μM), or the combination thereof, as well as increasing concentrations of spermidine (0.1 to 300 μM). Fresh medium was added every other day, and cell mass was determined at various time points during the period of exponential growth, or at the end of the experimental period. […]"}, "[3]": {"system": "mammalian polyamine carrier", "assay": "Determination of polyamine uptake activity: inhibition of diamine and polyamine transport in T-47D cells", "format": "cell-based, human", "conditions": "T-47D breast cancer cells; mean±SD; read-out: Ki, inhibition of [3H]putrescine uptake", "experimental": "The rate of diamine and polyamine transport was determined in T-47D and ZR-75-1 cells incubated in serum-free RPMI 1640 medium as previously described (U.S. Pat. No. 6,083,496; Covassin et al. (1999) Bioorg. Med. Chem. Lett. 9, 1709-1714), using 20 μM [^3H]putrescine (179 Ci/mol), 5 μM [^3H]spermidine (246 Ci/mol) and 3 μM [^14C]spermine (300-400 mCi/mol) respectively, as substrates for a 20-min assay period. Uptake activity was expressed per amount of DNA as fluorometrically determined using 3,5-diaminobenzoic acid (Simard et al. (1990) Endocrinology 126, 3223-3231). Kinetic parameters of polyamine transport inhibition for the transport antagonists were determined by Lineweaver-Burke analysis of uptake activity in the presence of 0.1 μM [^3H]putrescine, 0.03 μM [^3H]spermidine, and 0.01 μM [^14C]spermine plus increasing concentrations of nonradioactive substrate. For competitive inhibitors, Ki values were estimated by iterative curve fitting for sigmoidal equations describing transport rates in the presence of increasing concentrations of antagonist, using the Cheng-Prusoff equation for competitive inhibition (U.S. Pat. No. 6,083,496).\nThe ability of BSD and BNSD compounds to inhibit uptake of the main natural substrates of the mammalian polyamine carrier, namely putrescine, spermidine and spermine, was evaluated using T-47D human breast cancer cells (Table 1).\nData are presented as the mean±SD of at least two independent determinations of IC50 values, each based on triplicate determinations of uptake velocity at increasing inhibitor concentrations.\nThe potency of the polyamines and their xylylated dimers as competitive inhibitors of spermidine transport was evaluated in the T-47D human breast cancer cell line (Table 2)."}, "[4]": {"system": "CHO-K1, Jurkat, L1210, MDA-MB-231, ZR-75-1 and MCF-7 cells", "assay": "Reversal of DFMO-induced cytostasis by exogenous spermidine in a variety of mammalian cell lines", "format": "cell-based", "conditions": "50-100 μM BNSD-X", "experimental": "FIGS. 5A, 5B, 5C, 5D, 5E and 5F are graphs representing that a compound used in a method according to a preferred embodiment antagonizes rescue of DFMO-induced cytostasis by exogenous spermidine. In particular, CHO-K1 (A), Jurkat (B), L1210 (C), MDA-MB-231 (D), ZR-75-1 (E) and MCF-7 cells (F) were grown to near confluency or saturation (for 4 to 11 d according to the cell line considered) with the indicated concentrations of spermidine in medium containing 1 mM aminoguanidine, in the presence of DFMO (●), BNSD-X (□), DFMO plus BNSD-X (▪), or in the absence of either agent (∘), and total DNA content per culture was then determined. The optimal concentration of either DFMO (1 to 5 mM) or BNSD-X (50 or 100 μM) was used for the each cell line as determined in pilot experiments. Data are presented as the mean±SD for triplicate cultures from one out of at least three identical experiments for each cell line;\nTo determine the ability of polyamine transport antagonists to potentiate DFMO-induced inhibition of cell proliferation in the presence of exogenous polyamines, cells were grown for the indicated period in growth medium supplemented with 1 mM aminoguanidine, and either DFMO (1 to 5 mM), the indicated transport inhibitor (50 or 100 μM), or the combination thereof, as well as increasing concentrations of spermidine (0.1 to 300 μM). Fresh medium was added every other day, and cell mass was determined at various time points during the period of exponential growth, or at the end of the experimental period. For the latter experiments, the FBS supplement was replaced with dextran-coated charcoal-treated FBS (5%, v/v) plus 0.5 μg/ml insulin in the case of T-47D, ZR-75-1 and MCF-7 cells (U.S. Pat. No. 6,083,496)."}}, "data": [{"compound": "NCCCN(CCCN)Cc1ccc(CN(CCCN)CCCN)cc1", "note": "[28a, N,N,N′,N′-tetrakis-(3-aminopropyl)-p-diaminoxylene]", "values": [{"measurement": "residual rate of spermidine influx, of the maximal rate of spermidine accumulation", "setting": "[1]; 20-fold excess of BNSD-X, T-47D and ZR-75-1", "result": "8-10%"}, {"measurement": "decrease of net [3H]spermidine uptake, without cycloheximide", "setting": "[1]; T-47D, after 8 h, BNSD-X:spermidine 20:1", "result": 80, "unit": "%"}, {"measurement": "decrease of net [3H]spermidine uptake, with cycloheximide", "setting": "[1]; T-47D, after 8 h, BNSD-X:spermidine 20:1 (100 μM:5 μM), 200 μM cycloheximide", "result": 92, "unit": "%"}, {"measurement": "potentiation of DFMO-induced cytostasis in the absence of exogenous spermidine, CHO-TOR", "setting": "[2]", "result": "observed in the parental cell line"}, {"measurement": "Ki", "setting": "[3]", "result": "160 ± 30", "unit": "nM"}, {"measurement": "increase of the spermidine concentration required to fully restore cell proliferation upon treatment with DFMO", "setting": "[4]; DFMO 1 to 5 mM", "result": "10 to 100", "unit": "fold"}, {"measurement": "effect of the inhibitor alone on cell proliferation", "setting": "[4]; except L1210 and, to a lesser degree, MCF-7 cells", "result": "little or no effect"}]}]}
